Results: a melting point compilation (Tetko et al.; mined from patent text by program, amines drawn as free bases though some values may be those of a salt)

Row | melting point [°C] | SMILES
1 | 177 to 178 | CC1CC(=O)NN=C1c1ccc(NC(=O)Oc2ccc([N+](=O)[O-])cc2)cc1 (stereo not drawn)
2 | 258 to 259 | COC(=O)c1cc(C(=O)Nc2nccs2)c2cc(Cc3ccc(F)cc3)cnc2c1O
3 | 235 to 237 | Cc1ccc(-c2[nH]c(-c3ccc(C(F)(F)F)cc3)nc2C(=O)Nc2nccs2)s1
4 | 275 to 276 | CS(=O)c1ccc2ncn(C=CC(=O)O)c(=O)c2c1 (stereo not drawn)
5 | 68 to 70 | OCc1ccc(C=Cc2csc3ccccc23)s1
6 | 288 to 290 | O=C1CCC(N2C(=O)c3ccc(CNC(=O)Nc4ccccc4)cc3C2=O)C(=O)N1 (stereo not drawn)
7 | 90 to 92 | COc1ccc2c(c1)c(CC(=O)O)c(C)n2C(=O)c1cccc(Cl)c1
8 | 217 to 218 | COC(=O)c1c(Cc2ccc(S(C)(=O)=O)nc2)c(=O)c2ccc(C)nc2n1-c1ccccc1
9 | 172 to 175 | O=CC(Nc1ccc2c(c1)OCC(=O)N2)N1CCC(Cc2ccccc2)CC1 (stereo not drawn)
10 | 198 to 200 | COC(=O)Cn1c(-c2ccc(Cl)cc2)nc2cccnc21
11 | 136 to 137 | O=c1c(CCCc2ccncc2)cc2cccnc2n1-c1ccc(Cl)c([N+](=O)[O-])c1
12 | 216 to 218 | O=C1NC(=O)C(c2ccc(N=Cc3ccc(Cl)c(Cl)c3)cc2)S1 (stereo not drawn)
13 | 59.1 | Cl/C(=C\n1ccnc1)c1ccc(Cl)cc1Cl
14 | 203 to 204 | CC(C)c1ccc2c(c1)OCc1ccc(C(=O)O)cc1C2=O
15 | 166 to 168 | CONC(=O)c1[nH]c(C)c(-c2nc3ccc(Oc4ccccc4)cc3[nH]2)c1C
16 | 59 to 61 | Cc1ccc(-c2cccc(C#N)c2)cc1

The next lines start with the compound.

Row | SMILES | melting point [°C]
17 | Brc1ccn2nc(-c3ccccc3)nc2c1 | 189 to 191
18 | CC(C)[C@H](NC(=O)OCc1ccccn1)C(=O)N[C@@H](Cc1ccccc1)C[C@H](O)[C@H](Cc1ccccc1)NC(=O)OCc1cncs1 | 166 to 168
19 | N#Cc1ccc(-c2cn(-c3ccc(C#N)cc3)c(SCC(O)CO)n2)cc1 (stereo not drawn) | 190 to 195
20 | COc1ccc(C[C@@H]2CCc3ncc(C)cc3C2)cc1 | 46 to 48
21 | CC(C)(C)c1ccc2c(c1)C=C(C(=O)O)C(C(F)(F)F)S2 (stereo not drawn) | 184 to 185
22 | O=C(O)Cc1cc(Br)c(S(=O)(=O)c2ccc(O)c(I)c2)c(Br)c1 | 174 to 176
23 | CCOC(=O)Nc1nc(C)co1 | 126
24 | COCC(=O)N1CCc2nc3ccccc3c(C)c2CC1 | 116
25 | COc1ccc(S(=O)(=O)N(CC(=O)NO)Cc2ccc3ccccc3n2)cc1 | 177 to 178
26 | N#Cc1ccc(N2CCC(=O)CC2)cc1 | 100 to 101
27 | CCC(C)n1c(=O)ccc2cnc(Nc3ccccc3)nc21 (stereo not drawn) | 155 to 156
28 | CCCCCc1nc2cnc3ccccc3c2[nH]1 | 142 to 143
29 | CCN(CCO[N+](=O)[O-])C(=O)COC(=O)c1cc(S(N)(=O)=O)c(Cl)cc1NCc1ccco1 | 60 to 62
30 | COC1=C(OC)C(=O)C2=C(CC(CCCCCCCC(=O)O)(c3ccccc3)C2)C1=O | 63 to 66
31 | COc1nc2cc([N+](=O)[O-])c(C)c(C(=O)NCc3ccccc3)c2nc1OC | 171 to 173
32 | CCSC(C)(C)C(=O)CC(=O)Nc1cc(NC(=O)C(CC)Oc2ccc(C(C)(C)CC)cc2C(C)(C)CC)ccc1Cl (stereo not drawn) | 65 to 68
33 | CC(C)c1nc(COC(=O)N[C@@H](C)C(=O)N[C@@H](Cc2ccccc2)C[C@H](O)[C@H](Cc2ccccc2)NC(=O)OCc2cncs2)cs1 | 59 to 61
34 | CN(C(=O)OC(C)(C)C)c1cc(Oc2ccc(OCc3ccccc3)cc2)ccc1[N+](=O)[O-] | 108 to 110
35 | Cc1cc(=O)[nH]c(SCc2ccc(Br)cc2N(C)C)n1 | 163 to 164
36 | CN1CC(O)c2cc(S(N)(=O)=O)sc2S1(=O)=O (single isomer, unassigned; (+)) | 168
37 | CNC(=S)C1(c2cccc(C)n2)SCCCS1 | 168
38 | COC(=O)c1cc2cc(OC(F)F)ccc2nc1C(=O)OC | 84 to 85
